From article PMC6560211, “ApoAI-derived peptide increases glucose tolerance and prevents formation of atherosclerosis in mice” (Diabetologia, 2019)
No end group written: not given here.

Experiments:
[1] = tested on: Apoe−/− mice; test: Atherosclerosis model, western diet; type: in vivo, mouse; conditions: female Apoe−/− mice, i.p. three times a week for 6 weeks, RG54 12 mg/kg, ApoA-I 14 mg/kg, liraglutide 0.3 mg/kg, Oil Red O, n=9, vs NaCl
Description: Female Apoe^−/− mice (002052, Jackson Laboratory, Bar Harbor, ME, USA) at 12 weeks of age were acclimatised for 1 week, then changed to the RD western diet (D12079B) and injected i.p. three times per week for 6 weeks with treatments as indicated in ESM Fig. 1. At the end of the experimental period, the mice were euthanised and whole aortas were collected, fixed and stained for analysis. See ESM Methods for more details.
Apoe^−/− mice, which develop aortic atherosclerosis, were used to test if RG54 reduces the formation of atherosclerotic plaques in vivo. Apoe^−/− mice were obtained at 12 weeks of age and acclimatised for 1 week, after which baseline body weights, dual-energy x-ray absorptiometry body scans and serum samples were collected. […] Serum lipid profiles were measured at the start and end of the experimental period (ESM Fig. 5).
Fig. 2 Effect of ApoA-I or RG54 treatment on early, low-burden atherosclerotic lesion development in Apoe^−/− mice. […] (a) Body weight was measured weekly (n=9). […] (d–f) After euthanasia the aortic arch and abdominal aorta were removed, fixed and prepared en face, then atherosclerotic plaques were stained using Oil Red O. Representative aorta images (d) shown as raw images and images analysed for Oil Red O stained areas. […] Stained areas were then quantified to give the total plaque area (e) and total plaques per aorta (f) (n=9). […]

[2] = tested on: J774 macrophages; test: Cholesterol efflux assay; type: cell-based, mouse
Description: The mouse macrophage-like cell line J774 (ATCC TIB-67), loaded with ^3H-cholesterol, was used for cholesterol efflux to acceptors (RG54 or ApoA-I) as previously described.
To investigate the functionality of the RG54 peptide in a physiological context, cholesterol efflux from J774 macrophages was employed. Cultured macrophages were loaded with radioactive cholesterol, then incubated for 2 or 4 h with RG54 peptide or ApoA-I at the shown concentrations, followed by quantification of the amount of effluxed ^3H-cholesterol (Fig. 1a,b). […] As most circulating ApoA-I is bound to lipids in various species of HDL, and as the RG54 peptide was shown in the lipid clearance assay to efficiently associate with lipids, we reasoned that lipidation of the RG54 peptide might improve its catalytic activity. To explore this, RG54 was first incubated with lipids as described in ESM Fig. 4d, followed by comparative analyses of the catalytic capacities in cholesterol efflux from cholesterol-loaded macrophages.
Fig. 1 Cholesterol efflux activity of RG54 compared with ApoA-I. (a, b) Concentration dependence of cholesterol efflux from ^3H-cholesterol-labelled J774 cells by lipid-free RG54 or ApoA-I was measured after 2 h (a) or 4 h (b). n=5 for both. Vmax (c) and KM (d) were calculated using the Michaelis–Menten equation. (e–g) Efflux activity of lipid-free (LF) and lipid-bound (LB) RG54 was compared after 2 h. n=3. An acyl CoA:cholesterol O-acyltransferase (ACAT) inhibitor and 8-(4-chlorophenylthio; CPT)-cAMP were used in all experiments to prevent formation of cholesteryl esters of ^3H-cholesterol and to induce expression of ABCA1, respectively. Values are means ± SEM. **p≤0.01, ***p≤0.001

“Ac-AEYHAKATEHLSTLSEKAKPALEDLRQGLLPVLESFKVSFLSALEEYTKKLNTQ [RG54]” was tested, and the “number of plaques per mouse” value [1] was “significantly reduced”, the “total plaque area (percentage of the aortic surface)” value [1] was “significantly reduced” and the “Vmax of cholesterol efflux, lipid-bound vs lipid-free” value ([2]; RG54 first incubated with lipids (DMPC), 2 h, n=3) was “twofold increase”. The “Vmax of cholesterol efflux” value ([2]; lipid-free RG54 compared with ApoA-I, Michaelis-Menten, n=5) was “significantly lower” and the cholesterol efflux ([2]; lipid-free, 3H-cholesterol-loaded J774, 2 or 4 h, ACAT inhibitor and CPT-cAMP, n=5) was “dose-dependent manner”.
